From patent publication US8008286B2, “Method for treatment of neuropathic pain” (University of Virginia Patent Foundation, priority 2006, dated 2011)

What was measured:
[1] = system: rat with a crushed sciatic nerve; assay: Pain assay, 'trauma' model of neuropathic pain (crushed sciatic nerve), paw withdrawal latency with heat lamp; format: in vivo; conditions: rats, 10 mg/kg IP once on day 0, tested each day
Method: Test compound, VPC01091 (Drug T, mixture of all isomers), was dissolved in 2% hydroxypropyl beta-cyclodextrin in water and administered to the test group of laboratory rats. The vehicle (Drug V: 2% hydroxypropyl beta-cyclodextrin in water) was administered to the control group of laboratory rats. Each group included 11 animals.
The identities of ‘Drug T’ and ‘Drug V’ were maintained in secret to prevent bias. The test solutions (test compound or vehicle) were intraperitoneally (IP) administered once (day 0), the dose was 10 mg/kg body weight. On day 0, each of the 22 animals was anesthetized, the sciatic nerve bundle on the right side exposed surgically, and crushed mechanically. This is known as the ‘trauma’ model of neuropathic pain. The animals were tested each day for the time required to lift either paw after illumination with small heat lamp.

[2] = system: spinal nerve injury (SNL) model; assay: Spinal nerve injury (SNL) model of neuropathic pain, mechanical allodynia; format: in vivo, rat; conditions: rats, 3 mg/kg p.o., started 2 weeks after nerve injury
Description: In these models, oral treatment with VPC01091-D was started 2 weeks following nerve injury, once the pain was established. A control group received only vehicle.

[3] = system: sciatic nerve injury (CCI) model; assay: Sciatic nerve injury (CCI) model of neuropathic pain, mechanical allodynia; format: in vivo, rat; conditions: rats, 3 mg/kg p.o. once a day for 5 days, started 2 weeks after nerve injury
Description: In these models, oral treatment with VPC01091-D was started 2 weeks following nerve injury, once the pain was established. A control group received only vehicle. Following once a day dosing for 5 days, […].) reversed mechanical allodynia by 42±8% in the CCI model. (See FIG. 5).

SPHK2 enzyme = biological target: T1, SPHK2 enzyme (Homo sapiens, UniProt Q9NRA0); assay: Phosphorylation by the SPHK2 enzyme in vitro; format: biochemical; conditions: separated isomers of VPC01091, in vitro
T1 sequence (Q9NRA0 1-654): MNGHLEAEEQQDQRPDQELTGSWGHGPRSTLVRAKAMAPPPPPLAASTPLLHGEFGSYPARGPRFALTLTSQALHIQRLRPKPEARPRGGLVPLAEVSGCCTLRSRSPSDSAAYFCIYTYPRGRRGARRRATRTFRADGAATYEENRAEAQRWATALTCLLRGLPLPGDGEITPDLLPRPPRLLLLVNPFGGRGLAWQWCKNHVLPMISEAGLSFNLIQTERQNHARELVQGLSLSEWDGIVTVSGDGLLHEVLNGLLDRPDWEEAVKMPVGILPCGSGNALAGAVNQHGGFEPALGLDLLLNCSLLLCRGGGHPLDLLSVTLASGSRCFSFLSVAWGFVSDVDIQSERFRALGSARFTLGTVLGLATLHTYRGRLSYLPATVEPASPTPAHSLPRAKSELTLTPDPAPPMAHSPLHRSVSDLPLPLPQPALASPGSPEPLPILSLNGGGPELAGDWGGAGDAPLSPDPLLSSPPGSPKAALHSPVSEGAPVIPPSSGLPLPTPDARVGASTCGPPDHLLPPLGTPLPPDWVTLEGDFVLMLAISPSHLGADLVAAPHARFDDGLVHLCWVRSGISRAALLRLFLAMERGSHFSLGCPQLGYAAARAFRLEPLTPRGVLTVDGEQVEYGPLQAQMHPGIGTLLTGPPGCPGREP
Method: These compounds can be prepared as a mixture and separated by chromatography. Exemplary conditions for separation are as follows: Column: Chiralpak AD 4.6 mm ID×250 mm, Mobile Phase: Hex/EtOH/MeOH/DEA=95/2.5/2.5/0.03, Flow Rate: 1 mL/min, Detector: UV 220 nm, Column Temp: 40° C., or Column Temp: 25° C.

phosphorylated by the SPHK2 enzyme in vitro (SPHK2 enzyme) | Compound | analgesic effect (PWL time increases after injury), only on the affected side [1] | development of thermal hyperalgesia in the affected (crushed nerve) paw (PWL) [1] | analgesic activity [2] [%] | reversed mechanical allodynia [3] [%]
– | CCCCCCCCc1ccc(C2CCC(N)(CO)C2)cc1 (centres unmarked) [VPC01091, (1-amino-3-(4-octylphenyl)cyclopentyl)methanol] | exhibited an analgesic effect | prevented the development of thermal hyperalgesia | – | –
not phosphorylated | CCCCCCCCc1ccc([C@H]2CC[C@](N)(CO)C2)cc1 [VPC01091-D] | – | – | 50±10 | 42±8
